From ChEMBL document CHEMBL1143383, “Novel heteroaromatic organofluorine inhibitors of fructose-1,6-bisphosphatase” (J Med Chem, 2009)

Target: T1, Fructose-1,6-bisphosphatase 1 (Mus musculus, UniProt Q9QXD6)
T1 sequence (Q9QXD6 whole entry): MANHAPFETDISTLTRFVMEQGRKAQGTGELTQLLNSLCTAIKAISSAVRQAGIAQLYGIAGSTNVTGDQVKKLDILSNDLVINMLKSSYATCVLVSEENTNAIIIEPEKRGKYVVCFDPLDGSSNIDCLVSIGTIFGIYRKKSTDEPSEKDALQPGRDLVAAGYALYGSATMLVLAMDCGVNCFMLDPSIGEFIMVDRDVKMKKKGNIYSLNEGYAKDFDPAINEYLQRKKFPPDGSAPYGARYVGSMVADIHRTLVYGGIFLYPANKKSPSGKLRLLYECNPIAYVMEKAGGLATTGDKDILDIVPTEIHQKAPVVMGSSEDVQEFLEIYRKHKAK
Assay: Inhibition of fructose-1,6-bisphosphatase in mouse liver homogenates by colorimetric phosphate assay
Type: tissue-based

IC50 [µM]	SMILES
76.2	O=S(=O)(c1ccccc1)n1cccc1
> 250	COc1ccc(S(=O)(=O)n2c3ccccc3c3ccccc32)cc1
75.5	Fc1ccc(-c2cc(-c3ccc(F)cc3)n(-c3cccc(C(F)(F)F)c3)n2)cc1
> 300	COc1ccc(S(=O)(=O)n2ccc3ccccc32)cc1
> 300	COc1ccc2[nH]c3c(C)ccc(C)c3c2c1
> 300	O=[N+]([O-])c1ccc(-n2nc(-c3ccccc3)cc2-c2ccccc2)cc1
6.04	FC(F)(F)c1cccc(-n2nc(-c3ccccc3)cc2-c2ccccc2)c1
> 300	O=S(=O)(c1ccc2ccccc2c1)n1c2ccccc2c2ccccc21
185	O=[N+]([O-])c1ccc(S(=O)(=O)n2ccc3ccccc32)cc1
119	O=S(=O)(c1ccccc1)n1ccc2ccccc21

Second part, the compound before the results:

SMILES	IC50 [µM]
O=[N+]([O-])c1ccc(S(=O)(=O)n2cccc2)cc1	109
COC(=O)c1ccc2[nH]c3ccccc3c2c1	> 300
CCOC(=O)C(O)(c1c[nH]c2ccc(I)cc12)C(F)(F)F (stereo not drawn)	13.3
O=[N+]([O-])c1ccc(S(=O)(=O)n2c3ccccc3c3ccccc32)cc1	177
CCOC(=O)CC(O)(c1[nH]c(C)cc1C)C(F)(F)F (stereo not drawn)	4.81
O=S(=O)(c1ccc2ccccc2c1)n1ccc2ccccc21	> 300
O=C(c1ccc(F)cc1)n1ccc2ccccc21	129
Fc1ccc(-c2cc(-c3ccc(F)cc3)n(-c3ccccc3)n2)cc1	151
O=C(c1ccc(C(F)(F)F)cc1)n1ccc2ccccc21	3.09
CCOC(=O)C(O)(c1ccc[nH]1)C(F)(F)F (stereo not drawn)	25.7
COc1ccc(S(=O)(=O)n2cccc2)cc1	246
CCOC(=O)CC(O)(c1cccn1C)C(F)(F)F (stereo not drawn)	41.8
CCOC(=O)C(O)(c1cn(C)c2ccccc12)C(F)(F)F (stereo not drawn)	11.9
Cc1ccc(S(=O)(=O)n2cccc2)cc1	> 300
CCOC(=O)CC(O)(c1ccc[nH]1)C(F)(F)F (stereo not drawn)	25.7
Cc1ccccc1S(=O)(=O)n1cccc1	> 250
CCOC(=O)C(O)(c1c[nH]c2ccc(C)cc12)C(F)(F)F (stereo not drawn)	36
O=C(c1ccc([N+](=O)[O-])cc1)n1ccc2ccccc21	> 300
